In patent publication US11571413B2, “Nicotinamide riboside treatments of domesticated meat animals” (Kansas State University Research Foundation, priority 2017, dated 2023):

What was measured:
[1] = test system: finished market barrows; assay: Performance test to subjective fatigue (Example V); type: in vivo, pig; conditions: 30 mg/kg BW oral daily; performance test on day 7, 0.88 m/s
Experimental: Fourteen days prior to harvest, 20 finished market barrows (initial body weight 268 pounds) were randomly assigned to 1 of 2 treatments: 0 or 30 mg/kg body weight of nicotinamide riboside, both orally administered daily in 20 ml of Karo® Syrup. Ten days prior to harvest, pigs were restrained via a snare and treatments were administered. On day 7, barrows were subjected to a performance test where they were walked around a track at 0.88 m/s until subjective fatigue was achieved. Three days following the performance test, barrows were harvested and a portion of the semitendinosus muscle was collected within 45 minutes. These samples were analyzed for NAD+ content via HPLC methodology.

[2] = test system: Fertilized broiler eggs (Cobb 500); assay: Pectoralis major muscle fiber CSA and density by immunohistochemistry (Example VI); type: in vivo, chicken; conditions: hatched chicks
Experimental: The methods of Noel et al. (2016) were followed for immunohistochemistry with modifications. The PM was removed from the tongue depressor, embedded in tissue embedding media (Fisher Scientific), cooled with isopentane chilled liquid nitrogen, and stored at −80° C. until cryosectioning. Ten micrometer-thick cryosections were cut using a Microm 550 cryostat (Thermo Fisher Scientific, Kalamazoo, Mich.) and six cryosection were collected on positively charged slides (Diamond White Glass; Globe Scientific Inc., Paramus, N.J.). Cryosections were incubated in a blocking solution containing 5% horse serum and 0.2% TritonX-100 in Phosphate Buffered Saline (PBS) for 30 min. Slides were incubated for 1 h at room temperature in a primary antibody solution consisting of blocking solution and 1:500 rabbit, α-dystrophin (Thermo Fisher Scientific). Cryosections were washed 3 times for 5 min each in PBS and incubated for an additional 30 min with blocking solution containing 1:1,000 Alexa-Flour 594 goat-anti-rabbit heavy and light chains (Life Technologies, Carlsbad, Calif.). Cryosections were washed again as stated above, 5 μl of 9:1 glycerol in PBS was placed on each section, and slides were coverslipped for imaging. Cryosections were visualized at 200× magnification using a Nikon Elipse TI-U inverted microscope (Nikon Instruments Inc., Melville, N.Y.), a Nikon DS-QiMC digital camera (Nikon Instruments Inc.) was used to photograph cryosections, and an average of 1,000 fibers were analyzed using NIS-Elements imaging software (Basic Research, 3.3; Nikon Instruments Inc.) to determine fiber cross-section area (CSA).

[3] = test system: Fertilized Cobb 500 broiler eggs; assay: Pectoralis major muscle fiber morphometrics and satellite cell content (second Example VI); type: in vivo, chicken
Experimental: The methods of Gonzalez and Jackson (2020) were followed for immunohistochemistry analysis. On 2 separate slides, 6 cryosections (10 μm thick) were collected on positively charged slides (Diamond White Glass; Globe Scientific Inc., Paramus, N.J.). Cryosections were incubated in 5% horse serum and 0.2% TritonX-100 in phosphate buffered saline (PBS) for 30 min to block all nonspecific binding sites. Cryosections were incubated for 16 h at 4° C. with a primary antibody solution comprising blocking solution and 1:500 rabbit α-dystrophin (Thermo Scientific, Waltham, Mass.) and 1:2 […] α-Pax7 antibody (Developmental Studies Hybridoma Bank, Iowa City, Iowa). Cryosections were washed 3 times for 5 min with PBS and incubated for 30 min with 1:1,000 Alexa-Flour 594 goat-anti-rabbit H&L (Life Technologies, Carlsbad, Calif.), 1:1000 Alexa-Flour 488 chicken-anti-mouse IgG1 (Life Technologies), and 1:1,000 Hoescht Dye 33342 (Life technologies) secondary antibodies in blocking solution. After washing in PBS 3 times for 5 min, 5 μL of 9:1 glycerol in PBS was placed on each cryosection and slides were coverslipped for imaging. All cryosections were imaged at 200× magnification using a Nikon Eclipse TI-U inverted microscope (Nikon Instruments Inc., Melville, N.Y.). Immunohistochemistry photomicrographs were collected with a DS-QiMC digital camera (Nikon Instruments Inc.) and SDH cryosections were collected with a Nikon DS-Fil color digital camera (Nikon Instruments Inc.) White light intensity was kept constant for SDH photomicrographs. All photomicrograph collection and image analyses were conducted using NIS Elements Basic Software (Nikon Instruments Inc.). Cross-sectional area (CSA) of a minimum of 1,000 muscle fibers per chick was determined as the area within the dystrophin border. The number of satellite cell was determined as nuclei co-staining for Pax 7 and Hoechst dye located at the periphery of muscle fiber. A minimum of 50 muscle fiber bundles per chick were analyzed for SDH mean intensity using the same software. The scale for mean intensity ranged from 0 (black or the most intense staining) to 250 (white or the least intense staining).

[4] = test system: Fertilized Cobb 500 broiler eggs; assay: Pectoralis major succinate dehydrogenase staining intensity (second Example VI); type: in vivo, chicken; conditions: 250, 500 or 1,000 mM NR; hatched chicks
Experimental: The methods of Noel et al. (2016) were followed for succinate dehydrogenase (SDH) staining. Slides were incubated at 37° C. for 1 h in a prewarmed incubation solution containing nitro blue tetrazolium solution, phosphate buffer, and sodium succinate solution. After washing in ultrapure water 3 times for 1 min each, 5 μL of 9:1 glycerol in PBS was placed on each cryosection and they were coverslipped for imaging. All cryosections were imaged at 200× magnification using a Nikon Eclipse TI-U inverted microscope (Nikon Instruments Inc., Melville, N.Y.). Immunohistochemistry photomicrographs were collected with a DS-QiMC digital camera (Nikon Instruments Inc.) and SDH cryosections were collected with a Nikon DS-Fil color digital camera (Nikon Instruments Inc.) White light intensity was kept constant for SDH photomicrographs. All photomicrograph collection and image analyses were conducted using NIS Elements Basic Software (Nikon Instruments Inc.). Cross-sectional area (CSA) of a minimum of 1,000 muscle fibers per chick was determined as the area within the dystrophin border. The number of satellite cell was determined as nuclei co-staining for Pax 7 and Hoechst dye located at the periphery of muscle fiber. A minimum of 50 muscle fiber bundles per chick were analyzed for SDH mean intensity using the same software. […]

[5] = 250, 500 mM or 1 M NR, hatched chicks
[6] = 250 and 500 mM NR, hatched chicks

What does the source list for `NC(=O)c1ccc[n+]([C@@H]2O[C@H](CO)[C@@H](O)[C@H]2O)c1` [Nicotinamide riboside, nicotinamide riboside]?
Ran farther (distance) than unsupplemented barrows, numerically [1]: 16%; Ran longer (time to subjective fatigue) than unsupplemented barrows, numerically [1]: 19%; PM fiber CSA ([2]; 250 mM NR in ovo at d 10): did not affect; Muscle fiber density vs saline in the albumen ([2]; 250 mM NR into albumen): not differ; Increase of PM fiber density ([2]; 250 mM NR into the yolk sac): 45%; Muscle fiber density vs saline in the yolk ([2]; 250 mM NR into yolk): more; Increase of satellite cell density compared to control ([3]; 250 mM NR, at hatching): 73%; Satellite cell density vs control chicks ([3]; 250 mM NR, hatched chicks): greater; Average increase of satellite cell density compared to control ([3]; 500 mM and 1 M NR, at hatching): 116%; Satellite cell density vs 0 and 250 mM treatments ([3]; 500 mM or 1 M NR, hatched chicks): greater satellite cell density; Increase of muscle fiber density compared to control chicks ([3]; 1 M NR, hatched chicks): 75%; Muscle fiber density vs all other treatments ([3]; 1 M NR, hatched chicks): greater muscle fiber density; Muscle fiber CSA [3, 5]: no treatment effect; Number of satellite cells per muscle fiber [3, 5]: no treatment effect; Increase of muscle fiber density compared to control chicks (average) [3, 6]: 34%; Muscle fiber density vs control chicks [3, 6]: greater muscle fiber density; SDH staining intensity [4]: no treatment effect
